Measurements from patent publication US11040963B2 (priority 2017, dated 2021).

Columns and labels:
[1] = target: HA H5 A/Vietnam/1203/04 (Influenza A virus (A/Vietnam/1203/2004(H5N1)), UniProt Q5EP31); experiment: biochemical; conditions: Competition binding (AlphaLISA), pIC50 H5 A/Vietnam/1203/04
H1N1 A/PR/8/34-MA = experiment: microbe, parasite or virus in culture; type: cell-based, influenza A virus; conditions: Influenza A virus, MDCK, 96 h, read-out: Virus neutralization assay (VNA), pEC50 H1N1 A/PR/8/34-MA (converted)
[2] = tested on: H1N1 A/New Caledonia/20/99; experiment: microbe, parasite or virus in culture; type: cell-based, influenza A virus; conditions: for EC50: Influenza A virus, H1N1, MDCK, 96 h, read-out: Virus neutralization assay (VNA), pEC50 H1N1 A/New Caledonia/20/99 (converted)
in vitro = conditions: dog, Cytotoxicity (pCC50) MDCK
[3] = target: HA H1 A/California/07/09 (Influenza A virus (A/California/07/2009(H1N1)), UniProt C3W5X2); experiment: biochemical; conditions: Competition binding (AlphaLISA), pIC50 H1 A/California/07/09
[4] = target: HA H1 A/New Caledonia/20/99 (Influenza A virus (A/New Caledonia/20/1999(H1N1)), UniProt Q6WG00); experiment: biochemical; conditions: Competition binding (AlphaLISA), pIC50 H1 A/New Caledonia/20/99
H1N1 A/California/07/09 = experiment: microbe, parasite or virus in culture; type: cell-based, influenza A virus; conditions: for EC50: Influenza A virus, H1N1, MDCK, 96 h, read-out: Virus neutralization assay (VNA), pEC50 H1N1 A/California/07/09 (converted)
H5N1 A/Vietnam/1203/04 = experiment: microbe, parasite or virus in culture; type: cell-based, influenza A virus; conditions: 96 h, average of repeats; for EC50: Influenza A virus, H5N1, MDCK, read-out: Virus neutralization assay (VNA), pEC50 H5N1 A/Vietnam/1203/04, MDCK cells, 96 h, CPE by ATPlite (converted)
MDCK cells = conditions: dog

## COC(=O)C(c1ccccc1)C1CCN(C(=O)c2cccc(-c3nc4ccc(OC)cc4s3)c2)CC1 (centres unmarked) [Example 105]
[1]
  IC50: 2 µM
H1N1 A/PR/8/34-MA
  EC50: 2 µM
[2]
  EC50: 1 µM
In vitro
  CC50: > 50.1 µM
[3]
  IC50: 0.126 µM
[4]
  IC50: 0.1 µM
H1N1 A/California/07/09
  EC50: 3.16 µM
H5N1 A/Vietnam/1203/04
  EC50: 12.6 µM

## COC(=O)C(c1ccccc1)N1CCN(C(=O)c2cccc(-c3ccc(OC)cc3)c2)CC1 (centres unmarked) [Example 83]
[1]
  IC50: 2.51 µM
H1N1 A/PR/8/34-MA
  EC50: 1 µM
[2]
  Virus neutralization assay (VNA), pEC50 H1N1 A/New Caledonia/20/99: 6.2
In vitro
  CC50: 39.8 µM
[3]
  IC50: 0.398 µM
[4]
  IC50: 0.2 µM
H1N1 A/California/07/09
  Virus neutralization assay (VNA), pEC50 H1N1 A/California/07/09: 5.7
H5N1 A/Vietnam/1203/04; MDCK cells, CPE by ATPlite
  Virus neutralization assay (VNA), pEC50 H5N1 A/Vietnam/1203/04: 4.8

## COC(=O)C(c1ccccc1)C1CCN(C(=O)c2cccc(-c3nc4ccc(OC)cc4[nH]3)c2)CC1 (centres unmarked) [Example 123]
[1]
  IC50: 12.6 µM
H1N1 A/PR/8/34-MA
  EC50: 2.51 µM
[2]
  EC50: 1.58 µM
In vitro
  CC50: > 50.1 µM
[3]
  IC50: 0.631 µM
[4]
  IC50: 0.501 µM
H1N1 A/California/07/09
  EC50: 5.01 µM
H5N1 A/Vietnam/1203/04
  EC50: 50.1 µM

## COC(=O)[C@@H](c1ccccc1)N1CCN(C(=O)c2cccc(-c3nc4ccc(OC)cc4s3)c2)CC1 [Example 19]
[1]
  IC50: 0.2 µM
H1N1 A/PR/8/34-MA
  EC50: 0.126 µM
[2]
  EC50: 0.1 µM
In vitro
  CC50: > 50.1 µM
[3]
  IC50: 0.02 µM
[4]
  IC50: 0.0158 µM
H1N1 A/California/07/09
  EC50: 0.251 µM
H5N1 A/Vietnam/1203/04
  EC50: 1.58 µM

## COC(=O)C(c1ccccc1)N1CCN(C(=O)c2cccc(-c3ccc(OC)cc3)c2)CC1 (centres unmarked) [Example 128]
[1]
  IC50: 3.16 µM
[2]
  Virus neutralization assay (VNA), pEC50 H1N1 A/New Caledonia/20/99: 5.7
[3]
  IC50: 0.251 µM
[4]
  IC50: 0.158 µM
H1N1 A/California/07/09
  EC50: 3.16 µM
MDCK cells
  Cytotoxicity (pCC50) MDCK: <4.3
H5N1 A/Vietnam/1203/04
  EC50: 10 µM

## Cc1nnc([C@@H](c2ccccc2)N2CCN(C(=O)c3cccc(-c4nc5cc(C(F)(F)F)ccc5o4)c3)CC2)o1 [Example 27]
[1]
  IC50: 1.26 µM
[2]
  EC50: 0.316 µM
[3]
  IC50: 0.0316 µM
[4]
  IC50: 0.0501 µM
H1N1 A/California/07/09
  EC50: 0.316 µM
MDCK cells
  Cytotoxicity (pCC50) MDCK: <4.3
H5N1 A/Vietnam/1203/04
  EC50: 39.8 µM

## O=C(c1cccc(-c2cc3ccccc3o2)c1)N1CCN(Cc2ccccc2)CC1 [Example 85]
[1]
  IC50: 3.16 µM
H1N1 A/PR/8/34-MA
  EC50: 0.501 µM
[2]
  EC50: 0.631 µM
In vitro
  CC50: 10 µM
[3]
  IC50: 0.631 µM
[4]
  IC50: 0.316 µM
H1N1 A/California/07/09
  EC50: 2.51 µM
H5N1 A/Vietnam/1203/04
  EC50: 12.6 µM

## COC(=O)C(c1ccccc1)N1CCN(C(=O)c2cccc(-c3nc4ccc(OC)cc4s3)c2)CC1 (centres unmarked) [Example 29]
[1]
  IC50: 0.251 µM
H1N1 A/PR/8/34-MA
  EC50: 0.126 µM
[2]
  EC50: 0.158 µM
In vitro
  CC50: 39.8 µM
[3]
  IC50: 0.0251 µM
[4]
  IC50: 0.0158 µM
H1N1 A/California/07/09
  EC50: 0.251 µM
H5N1 A/Vietnam/1203/04
  EC50: 3.98 µM

## COC(=O)[C@@H](c1ccccc1)C1CCN(C(=O)c2cccc(-c3nc4ccc(OC)cc4s3)c2)CC1 [Example 65]
[1]
  IC50: 0.631 µM
H1N1 A/PR/8/34-MA
  EC50: 0.631 µM
[2]
  EC50: 0.501 µM
In vitro
  CC50: 39.8 µM
[3]
  IC50: 0.1 µM
[4]
  IC50: 0.0501 µM
H1N1 A/California/07/09
  EC50: 1 µM
H5N1 A/Vietnam/1203/04
  EC50: 25.1 µM

## CCOC(=O)C(c1ccccc1)N1CCN(C(=O)c2cccc(-c3ccc(OC)cc3)c2)CC1 (centres unmarked) [Example 120]
[1]
  IC50: 2.51 µM
H1N1 A/PR/8/34-MA
  EC50: 1 µM
[2]
  EC50: 1.58 µM
In vitro
  CC50: > 50.1 µM
[3]
  IC50: 0.251 µM
[4]
  IC50: 0.251 µM
H1N1 A/California/07/09
  EC50: 1.26 µM
H5N1 A/Vietnam/1203/04
  EC50: > 50.1 µM

## CC(=O)Nc1ccc2oc(-c3cccc(C(=O)N4CCN(C(c5ccccc5)c5nnc(C)o5)CC4)c3)nc2c1 (centres unmarked) [Example 51]
[1]
  IC50: 0.631 µM
[2]
  EC50: 0.251 µM
In vitro
  CC50: 50.1 µM
[3]
  IC50: 0.0158 µM
[4]
  IC50: 0.0126 µM
H1N1 A/California/07/09
  EC50: 0.251 µM
H5N1 A/Vietnam/1203/04
  EC50: 15.8 µM

## COC(=O)C(C)(c1ccccc1)N1CCN(C(=O)c2cccc(-c3nc4ccc(OC)cc4s3)c2)CC1 (centres unmarked) [Example 94]
[1]
  IC50: 0.631 µM
[2]
  EC50: 1 µM
In vitro
  CC50: 2.51 µM
[3]
  IC50: 0.0794 µM
[4]
  IC50: 0.0501 µM
H1N1 A/California/07/09
  EC50: 0.316 µM
H5N1 A/Vietnam/1203/04
  EC50: 7.94 µM

## CCc1nnc(C(c2ccccc2)N2CCN(C(=O)c3cccc(-c4nc5cc(C(F)(F)F)ccc5o4)c3)CC2)o1 (centres unmarked) [Example 109]
[1]
  IC50: 3.98 µM
[2]
  EC50: 1.26 µM
In vitro
  CC50: 10 µM
[3]
  IC50: 0.0794 µM
[4]
  IC50: 0.158 µM
H1N1 A/California/07/09
  EC50: 0.501 µM
H5N1 A/Vietnam/1203/04
  EC50: 25.1 µM

## COC(=O)C(c1ccccc1)C1CCN(C(=O)c2cccc(-c3ccc(OC)cc3)c2)CC1 (centres unmarked) [Example 130]
[1]
  IC50: 10 µM
H1N1 A/PR/8/34-MA
  EC50: 12.6 µM
[2]
  EC50: 2 µM
In vitro
  CC50: 39.8 µM
[3]
  IC50: 1 µM
[4]
  IC50: 0.631 µM
H1N1 A/California/07/09
  EC50: 15.8 µM
H5N1 A/Vietnam/1203/04
  EC50: 39.8 µM
